Calls of active or inactive are those of the source. The rule behind the calls is not given here.
Experiments:
[1] = test system: Triticum aestivum; assay: Growth inhibition of etiolated wheat coleoptiles at 100 uM after 24 hrs at 22 degC in dark relative to control; type: functional; conditions: read-out: GI
[2] = test system: Triticum aestivum; assay: Growth inhibition of etiolated wheat coleoptiles at 1000 uM after 24 hrs at 22 degC in dark relative to control; type: functional; conditions: read-out: GI
[3] = test system: Triticum aestivum; assay: Growth inhibition of etiolated wheat coleoptiles at 0.60 to 0.90 retention factor by paper chromatograms relative to control; type: functional
[4] = test system: Triticum aestivum; assay: Growth inhibition of etiolated wheat coleoptiles at 10 uM after 24 hrs at 22 degC in dark relative to control; type: functional; conditions: read-out: GI
[5] = test system: Nicotiana tabacum; assay: Growth inhibition of green house tobacco seedlings assessed as cupping of the leaves at 10000 uM at 18.5 degC after 24 hrs; type: functional, organism-based
[6] = test system: Zea mays; assay: Growth inhibition of green house corn seedling assessed as stunting at 100 uM after 72 hrs; type: functional, organism-based
[7] = test system: Nicotiana tabacum; assay: Growth inhibition of green house tobacco seedlings assessed as cupping of leaves resembling tobacco at 1000 uM at 2 to 7 degC after 24 hrs; type: functional, organism-based
[8] = test system: Zea mays; assay: Growth inhibition of green house corn seedling assessed as necrotic lesions at 10000 uM after 72 hrs; type: functional, organism-based
[9] = test system: Zea mays; assay: Growth inhibition of green house corn seedling assessed as whorls and chlorosis of the leaf margins at 1000 uM relative to control; type: functional; conditions: read-out: GI
[10] = test system: Nicotiana tabacum; assay: Growth inhibition of green house tobacco seedlings assessed as cupping of the leaves at 1000 uM after 72 hrs at 18.5 degC; type: functional, organism-based
[11] = test system: Nicotiana tabacum; assay: Growth inhibition of green house tobacco seedlings assessed as cupping of the leaves at 100 uM after 72 hrs at 18.5 degC; type: functional, organism-based
[12] = test system: Zea mays; assay: Growth inhibition of green house corn seedling assessed as chlorosis at 100 uM after 72 hrs; type: functional, organism-based
[13] = test system: Nicotiana tabacum; assay: Growth inhibition of green house tobacco seedlings assessed as cupping of the leaves at 100 uM at 18.5 degC after 24 hrs; type: functional, organism-based
[14] = test system: Triticum aestivum; assay: Growth inhibition of etiolated wheat coleoptiles at 0.20 to 0.30 retention factor by paper chromatograms relative to control; type: functional; set-up: scale not given: the % may be the effect or the level left
[15] = test system: Nicotiana tabacum; assay: Growth inhibition of green house tobacco seedlings assessed as cupping of the leaves at 1000 uM at 18.5 degC after 24 hrs; type: functional, organism-based
[16] = test system: Zea mays; assay: Growth inhibition of green house corn seedling assessed as necrotic lesions at 10000 uM after 1 week relative to control; type: functional; conditions: 168 h, read-out: GI
[17] = test system: Nicotiana tabacum; assay: Growth inhibition of green house tobacco seedlings assessed as cupping of leaves at 1000 uM within 24 hrs; type: functional, organism-based
[18] = test system: Nicotiana tabacum; assay: Growth inhibition of green house tobacco seedlings assessed as cupping of leaves at 10000 uM within 24 hrs; type: functional, organism-based
[19] = test system: Zea mays; assay: Growth inhibition of green house corn seedling assessed as stunting at 10000 uM after 1 week relative to control; type: functional; conditions: 168 h, read-out: GI
[20] = test system: Nicotiana tabacum; assay: Growth inhibition of green house tobacco seedlings assessed as cupping of leaves at 100 uM within 24 hrs; type: functional, organism-based
[21] = test system: Nicotiana tabacum; assay: Growth inhibition of green house tobacco seedlings assessed as cupping of the leaves at 10000 uM after 72 hrs at 18.5 degC; type: functional, organism-based
[22] = test system: Zea mays; assay: Growth inhibition of green house corn seedling assessed as stunting at 1000 uM after 72 hrs; type: functional, organism-based
[23] = test system: Nicotiana tabacum; assay: Growth inhibition of green house tobacco seedlings assessed as cupping of leaves resembling tobacco at 10000 uM at 2 to 7 degC after 24 hrs; type: functional, organism-based
[24] = test system: Zea mays; assay: Growth inhibition of green house corn seedling assessed as chlorosis at 1000 uM after 72 hrs; type: functional, organism-based
[25] = test system: Zea mays; assay: Growth inhibition of green house corn seedling at 10000 uM after 2 weeks relative to control; type: functional; conditions: 336 h, read-out: GI
[26] = test system: Triticum aestivum; assay: Growth inhibition of etiolated wheat coleoptiles at 0.00 to 0.10 retention factor by paper chromatograms relative to control; type: functional; set-up: scale not given: the % may be the effect or the level left
[27] = test system: Zea mays; assay: Growth inhibition of green house corn seedling at 1000 uM after 2 weeks relative to control; type: functional; conditions: 336 h, read-out: GI
[28] = test system: Triticum aestivum; assay: Growth inhibition of etiolated wheat coleoptiles at 0.10 to 0.20 retention factor by paper chromatograms relative to control; type: functional; set-up: scale not given: the % may be the effect or the level left
[29] = test system: Nicotiana tabacum; assay: Growth inhibition of green house tobacco seedlings assessed as cupping of leaves resembling tobacco at 100 uM at 2 to 7 degC after 24 hrs; type: functional, organism-based

Question: `CC1=CC(=O)CC(C)(C)C1(O)/C=C/C(C)=C\C(=O)O` (racemic) [ABSCISIC ACID] was tested. Which inhibition of growth at 100 µM [1] did it give?
Answer: 90%

Question: What about the inhibition of growth at 1000 µM [2] of the same compound?
Answer: 100%

Question: And the “growth inhibition (GI)” value [3]?
Answer: 100%

Question: What about the inhibition of growth at 10 µM [4] of the same compound?
Answer: 69%

Question: For `C=C1[C@H]2CC[C@H]3[C@]4(C)C[C@H](O[C@@H]5O[C@H](CO)[C@@H](OS(=O)(=O)O)[C@H](OS(=O)(=O)O)[C@H]5OC(=O)CC(C)C)CC(C(=O)[O-])(C(=O)[O-])[C@H]4CC[C@]3(C2)[C@H]1O.[K+].[K+]` [POTASSIUM CARBOXYATRACTYLOSIDE], which Activity [5] is on record?
Answer: Active

Question: And the Activity [6]?
Answer: Active

Question: And the inhibition of growth at 100 µM [1]?
Answer: 91%

Question: And the Activity [7]?
Answer: Active

Question: What about the Activity [8] of the same compound?
Answer: Active

Question: And the inhibition of growth at 1000 µM [9]?
Answer: 25%

Question: And the Activity [10]?
Answer: Active

Question: What about the Activity [11] of the same compound?
Answer: Active

Question: And the Activity [12]?
Answer: Active

Question: And the inhibition of growth at 1000 µM [2]?
Answer: 100%

Question: What about the Activity [13] of the same compound?
Answer: Active

Question: What about the Activity [14] of the same compound?
Answer: 86.4%

Question: What about the Activity [15] of the same compound?
Answer: Active

Question: What about the inhibition of growth at 10000 µM [16] of the same compound?
Answer: 50%

Question: And the Activity [17]?
Answer: Active

Question: And the Activity [18]?
Answer: Active

Question: What about the inhibition of growth at 10000 µM [19] of the same compound?
Answer: 50%

Question: And the Activity [20]?
Answer: Active

Question: And the inhibition of growth at 10 µM [4]?
Answer: 48%

Question: And the Activity [21]?
Answer: Active

Question: And the Activity [22]?
Answer: Active

Question: What about the Activity [23] of the same compound?
Answer: Active

Question: What about the Activity [24] of the same compound?
Answer: Active

Question: What about the inhibition of growth at 10000 µM [25] of the same compound?
Answer: 43%

Question: And the Activity [26]?
Answer: 88.4%

Question: And the inhibition of growth at 1000 µM [27]?
Answer: 14%

Question: And the Activity [28]?
Answer: 76.7%

Question: And the Activity [29]?
Answer: Active
